Test results reported in patent publication US9120762B2, “Salts of bicyclo-substituted pyrazolon azo derivatives, preparation method and use thereof” (Jiangsu Hengrui Medicine Co., Ltd., priority 2009, dated 2015).
Where two headings read alike, the source gives them in different places.

Experiments:
[1] = Pharmacokinetics assay in rats; format: in vivo, SD rats; settings: 50 mg/kg, SD rats, intragastric, 50 mg/Kg (as free acid); for Vd/F / AUC / CL/F / half-life / MRT / Cmax / Tmax: both sexes, SD, rat, plasma, po; for Vd/F: read-out: Apparent Distribution Volume Vz/F; for AUC: read-out: Area Under Curve AUC; for CL/F: read-out: Clearance CL/F (converted); for half-life: read-out: Half-Life t½ (converted); for MRT: read-out: Mean Residence Time MRT; for Cmax: read-out: Plasma Conc. Cmax; for Tmax: read-out: Time to peak Tmax
Protocol: The compounds of the present disclosure were administrated intragastrically to rats to determine the drug concentration in plasma at different time points by HPLC-UV. The pharmacokinetic behavior of the compounds of the present disclosure was studied and evaluated in rats. […] Healthy adult SD rats, male and female in half, were purchased from SINO-BRITSH SIPPR/BK LAB.ANIMAL LTD., Colo., License number: SCXK (Shanghai) 2003-0002 The test compound was diluted with 1% sodium carboxymethyl cellulose to 5 mg/mL (calculated as the free acid form) of suspension before use. Healthy adult SD rats, male and female in half, were divided into 23 groups. […] The plasma samples were stored at −20° C. until analysis. The rats were fed 2 hours after administration. […] Then the mixture was mixed for 3 minute using a vortexer and centrifuged for 10 minutes at 13,500 rpm. 40 μL of the supernatant was analyzed by HPLC-UV. The compartmental model of pharmacokinetics was fitted for the test compounds and the major pharmacokinetic parameters were calculated in which Cmax and tmax were the actually measured values.

[2] = Solubility assay in water, 0.1% hydrochloric acid and methanol; format: physicochemical; settings: read-out: solubility
Protocol: The solubility was characterized by:
The term “very soluble” refers to that 1 g (mL) of solute can be dissolved in less than 1 mL of solvent;
The term “freely soluble” refers to that 1 g (mL) of solute can be dissolved in from 1 mL to 10 mL, not including 10 mL of solvent;
The term “soluble” refers to that 1 g (mL) of solute can be dissolved in from 10 mL to 30 mL, not including 30 mL of solvent;
The term “sparingly soluble” refers to that 1g (mL) of solute can be dissolved in from 30 mL to 100 mL, not including 100 mL of solvent;
The term “slightly soluble” refers to that 1g (mL) of solute can be dissolved in from 100 mL to 1000 mL, not including 1000 mL of solvent;
The term “very slightly soluble” refers to that 1g (mL) of solute can be dissolved in from 1000 mL to 10000 mL, not including 10000 mL of solvent;
The term “practically insoluble or insoluble” refers to that 1g (mL) of solute cannot be dissolved completely in 10000 mL of solvent.

[3] = target: T1, human TPOR (Homo sapiens, UniProt P40238); experiment: Proliferation effect on BAF3-TPOR cell (CCK-8); format: cell-based; settings: rate relative to rhTPO positive control
T1 construct: host or cells: BaF3 (murine pro-B cells), stably transfected, G418-selected
T1 sequence (P40238 26-635): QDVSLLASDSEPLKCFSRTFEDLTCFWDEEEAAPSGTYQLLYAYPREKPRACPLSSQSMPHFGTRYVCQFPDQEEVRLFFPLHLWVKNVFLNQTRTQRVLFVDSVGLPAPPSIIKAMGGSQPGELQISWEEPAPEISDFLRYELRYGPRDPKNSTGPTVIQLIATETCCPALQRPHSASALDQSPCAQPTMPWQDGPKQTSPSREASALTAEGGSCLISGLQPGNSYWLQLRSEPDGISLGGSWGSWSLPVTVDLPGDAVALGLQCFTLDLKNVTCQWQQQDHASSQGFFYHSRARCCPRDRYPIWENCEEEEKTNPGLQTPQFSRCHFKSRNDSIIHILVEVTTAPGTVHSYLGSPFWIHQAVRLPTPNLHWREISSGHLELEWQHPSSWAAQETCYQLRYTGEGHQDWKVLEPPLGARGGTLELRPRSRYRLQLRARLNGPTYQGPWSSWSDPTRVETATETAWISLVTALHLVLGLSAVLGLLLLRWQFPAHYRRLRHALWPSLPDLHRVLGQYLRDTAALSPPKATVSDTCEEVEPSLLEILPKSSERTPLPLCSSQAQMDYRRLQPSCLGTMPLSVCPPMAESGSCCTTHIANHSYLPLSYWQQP
Protocol: (1) Plasmid constructs: based on the TPO receptor (TPOR) sequence information from Entrez (Gene ID: 4325, Refseq: NM_005373), dual-site mutation was performed on EX-B0010-M02 plasmid by using QuikChange® Multi Site Directed Mutagenesis Kit (Stratagene). The sequence of primers containing multi-sites mutation was designed as follows: […]
The E. coli DH5α competent cells were transformed with mutated plasmid, and positive colonies were picked up through ampicillin selection. The mutation result was confirmed by sequence analysis.
(2) BAF3-TPOR stable transfected cell line: the following method was used to construct the BaF3 cell which stably over-expressed functional human TPOR. The successfully mutated EX-B0010-M02 plasmid ([…]) which expressed human TPOR and screening gene neomycin was transfected into wild-type BaF3 cells (1×10^7) by electroporation at 250V for 18 ms using an electric pulse generator (Electro Square Porator ECM830, BTX Division of Genetronic, Inc. US). The stable transfected cells BAF3-TPOR were selected with G418 (Gibco, US), then incubated in RPMI1640 medium plus 10% FBS (Gibco, US), […] G418, 5 ng/mL, rmIL-3 (Chemicon, US).
(1) Washing cells by centrifugation: a suitable amount of cell suspension was centrifuged at 1000 rpm for 5 minutes, and the supernatant was discarded. 10 mL of cell culture media without IL-3 was added. Then the resulting cell suspension was centrifuged at 1000 rpm for 5 minutes, and the supernatant was discarded.
(2) 1 mL of cell culture media without IL-3 was added to beat upon them to equality, and the number of a suitable amount of cell suspension was counted after dilution.
(3) According to the result of the cell counting, a cell suspension in a concentration of 100,000 cell/mL was prepared.
(4) 100 μL of cell suspension was transferred to each well of 96-well culture plate, and there were 3 parallel wells, that is, there were a blank control group (B), a negative control group (N), a positive control group of TPO (P) and a test compound group (S).
(5) The test compound was dissolved in DMSO to prepare a 10 mM stock solution, and then the solution was diluted with RPMI 1640 medium into a series of test samples at different concentration: 30 μM, 10 μM, 3 μM, 1 μM, 0.3 μM, 0.1 μM, 0.03 μM, 0.01 μM, 0.003 μM, 0.001 μM.
(6) 10 μL of test compound solution was transferred to each well respectively; 1 μL of rhTPO (10 ng/mL) was added to positive control well.
(7) The plates were incubated in an incubator at 5% CO2 and 37° C. for 24 hours.
(8) After incubation, 10 μL of CCK-8 solution was added to each well and the plates were incubated in the incubator for another 24 hours.
(9) OD value was detected at 450 nm by VICTORS (Perkin Elmer 1420-120) plate reader.
(1) The proliferation rate was calculated as follows: Rate=[(S−B)/(P−B)]*100%
S: OD value of wells which contain test compound.
B: OD value of blank control wells
P: OD value of positive control wells
(2) The EC50 value was calculated by Origin 7.0 software.

Vd/F [1] | AUC [1] | CL/F [1] | half-life [1] | MRT [1] | Cmax [1] | Tmax [1] | Mean Residence Time MRT [1] | SMILES | solubility ([2]; 0.1% hydrochloric acid, simulated gastric fluid, 0.1% hydrochloric acid) | solubility ([2]; methanol, organic solvent or mixture, methanol) | solubility ([2]; water) | EC50 [3] | Area Under Curve AUC [1] | Clearance CL/F [1] | Half-Life t½ [1] | Plasma Conc. Cmax [1] | Time to peak Tmax [1]
 |  |  |  |  |  |  |  | CC1=NN(c2ccc3c(c2)CCCC3)C(=O)/C1=N\Nc1cccc(-c2ccc(C(=O)O)o2)c1O [Example 9, (Z)-5-(2-hydroxy-3-{N′-[3-methyl-5-oxo-1-(5,6,7,8-tetrahydro-naphthalen-2-yl)-1,5-dihydro-pyrazol-4-ylidene]-hydrazino}-phenyl)-furan-2-carboxylic acid bis-(diethylamine)] |  |  |  | 14 nM | 146 ± 69.7 µg·h/mL | 6.52 ± 2.42 mL/min/kg | 9.65 ± 2.48 h | 21200 ± 10400 ng/mL | 2.88 ± 2.59 h
8.49 ± 2.16 L/kg | 151 ± 97 µg·h/mL | 11.5 mL/min/kg | 9.21 ± 1.57 h | 11.8 ± 4.5 h | 8730 ± 2580 ng/mL | 4.25 ± 1.26 h |  | CC1=NN(c2ccc3c(c2)CCCC3)C(=O)/C1=N\Nc1cccc(-c2coc(C(=O)O)c2)c1O [Example 22f, (Z)-4-(2-hydroxy-3-{N′-[3-methyl-5-oxo-1-(5,6,7,8-tetrahydro-naphthal-2-yl)-1,5-dihydro-pyrazol-4-ylidene]-hydrazino}-phenyl)-furan-2-carboxylic acid] |  |  |  | 42 nM |  |  |  |  | 
 |  |  |  |  |  |  |  | CC1=NN(c2ccc3c(c2)CCCC3)C(=O)/C1=N\Nc1cccc(-c2ccc(C(=O)O)o2)c1O [Example 13, (Z)-5-(2-hydroxy-3-{N′-[3-methyl-5-oxo-1-(5,6,7,8-tetrahydro-naphthalen-2-yl)-1,5-dihydro-pyrazol-4-ylidene]-hydrazino}-phenyl)-furan-2-carboxylic acid bis-(dibenzylethylenediamine)] |  |  |  | 20 nM | 42.8 ± 33.2 µg·h/mL | 27.2 ± 13.8 mL/min/kg | 5.70 ± 2.50 h | 8100 ± 3350 ng/mL | 1.38 ± 1.11 h
3.41 ± 1.75 L/kg | 603 ± 240 µg·h/mL | 4 mL/min/kg | 9.95 ± 0.6 h | 14.8 ± 1 h | 39800 ± 18200 ng/mL | 5 ± 2 h |  | CC1=NN(c2ccc3c(c2)CCCC3)C(=O)/C1=N\Nc1cccc(-c2coc(C(=O)O)c2)c1O.NCCO.NCCO [Example 22, (Z)-4-(2-Hydroxy-3-{N′-[3-methyl-5-oxo-1-(5,6,7,8-tetrahydro-naphthal-2-yl)-1,5-dihydro-pyrazol-4-ylidene]-hydrazino}-phenyl)-furan-2-carboxylic acid bis-(ethanolamine)] |  |  |  | 39 nM |  |  |  |  | 
 |  |  |  |  |  |  |  | CC1=NN(c2ccc3c(c2)CCCC3)C(=O)/C1=N\Nc1cccc(-c2ccc(C(=O)O)o2)c1O [Example 15, (Z)-5-(2-hydroxy-3-{N′-[3-methyl-5-oxo-1-(5,6,7,8-tetrahydro-naphthalen-2-yl)-1,5-dihydro-pyrazol-4-ylidene]-hydrazino}-phenyl)-furan-2-carboxylic acid bis-(L-arginine)] |  |  |  | 16 nM | 168 ± 118 µg·h/mL | 12.6 ± 16.6 mL/min/kg | 6.56 ± 3.80 h | 23300 ± 13600 ng/mL | 2.0 ± 1.16 h
 |  |  |  |  |  |  | 20.8 ± 9.1 h | CC1=NN(c2ccc3c(c2)C(C)(C)CC3)C(=O)/C1=N\Nc1cccc(-c2ccc(C(=O)O)o2)c1O [Example 5, (Z)-5-(3-{N′-[1-(3,3-dimethyl-indan-5-yl)-3-methyl-5-oxo-1,5-dihydro-pyrazol-4-ylidene]-hydrazino}-2-hydroxy-phenyl)-furan-2-carboxylic acid bis-(diethylamine)] |  |  |  | 19 nM | 255 ± 95 µg·h/mL | 3.67 ± 1.2 mL/min/kg | 15.0 ± 6.2 h | 19800 ± 3800 ng/mL | 3.25 ± 1.5 h

SMILES | Vd/F [1] | AUC [1] | CL/F [1] | half-life [1] | MRT [1] | Cmax [1] | Tmax [1] | Mean Residence Time MRT [1] | solubility ([2]; 0.1% hydrochloric acid, simulated gastric fluid, 0.1% hydrochloric acid) | solubility ([2]; methanol, organic solvent or mixture, methanol) | solubility ([2]; water) | EC50 [3] | Area Under Curve AUC [1] | Clearance CL/F [1] | Half-Life t½ [1] | Plasma Conc. Cmax [1] | Time to peak Tmax [1]
CC1=NN(c2ccc3c(c2)CCC3)C(=O)/C1=N\Nc1cccc(-c2cccc(C(=O)O)c2)c1O.NCCO.NCCO [Example 1, (Z)-2′-hydroxy-3′-[N′-(1-indan-5-yl-3-methyl-5-oxo-1,5-dihydro-pyrazol-4-ylidene)-hydrazino]-biphenyl-3-carboxylic acid bis-(ethanolamine)] | 0.45 ± 0.32 L/kg | 501 ± 178 µg·h/mL | 1.63 mL/min/kg | 5.39 ± 0.94 h | 4.96 ± 1.16 h | 90100 ± 35300 ng/mL | 3.25 ± 1.5 h |  | < 1 µg/mL | 1470 µg/mL | 3 µg/mL | 150 nM |  |  |  |  | 
